Assays:
E. coli SA/2 = experiment: Checkerboard synergy with CTX; format: cell-based
Experimental: (§1) The combined effect of compound 1 and CTX for E. coli SA/2, VAN for E. faecalis B3/101, COL for E. coli 2252, erythromycin for E. coli ATCC 25922, and OXA for S. aureus 66/1 was evaluated by the checkerboard method. […] The interaction between compound 1 and erythromycin was assessed for E. coli ATCC 25922. Gram-negative bacteria are intrinsically resistant to erythromycin, a macrolide that inhibits protein synthesis, and cannot penetrate the outer membrane of Gram-negative bacteria, which is impermeable to hydrophobic antibiotics. Ascertain ceragenins have been previously described to be able to enhance the efficacy of such antibiotics, this possibility was investigated for compound 1 and a FICI of 0.6 was obtained.

E. faecalis B3/101 = experiment: Checkerboard synergy with VAN; format: cell-based, Enterococcus faecalis
Experimental: as §1

S. aureus 66/1 = experiment: Checkerboard synergy with OXA; format: cell-based, Staphylococcus aureus
Experimental: as §1

E. coli ATCC 25922 = experiment: Time-kill kinetics; format: cell-based, Escherichia coli
Experimental: The present disclosure relates to antibacterial mechanism of action of the compound 1 herein disclosed. In an embodiment, the evaluation of time-kill kinetics was performed as follows. Time-kill kinetics of compound 1 were evaluated for E. coli ATCC 25922, allowing the confirmation of its bactericidal effect. This is usually determined when ≥99.9% killing of the initial inoculum occurs and is determined by a 3-log10-unit decrease in CFU/mL.
The effect of compound 1 concentrations ranging between 64 and 8 μg/mL was evaluated. The bacterial inoculum was prepared by suspending colonies from overnight cultures (grown in MHA) in CAMHB, and an aliquot of this suspension was added to each tube of CAMHB alone (control) or CAMHB plus an appropriate amount of compound 1, to give an inoculum of approximately 5×10^5 CFU/mL, in a final volume of 10 mL. Tubes were incubated at 37 degrees C. in a water bath with shaking. At predetermined time points (30 min, 1, 1.5, 2, 3, 4, 6, 8, 12, and 24 h), 100 μL aliquots were aseptically removed from each tube, after vortexing, serially diluted in buffered peptone water (Biokar Diagnostics, Allone, Beauvais, France), if necessary, and spread on MHA. Colony counts were determined following overnight incubation at 37 degrees C. and log10 CFU/mL was plotted against time. Three independent experiments were performed.

P. aeruginosa ATCC 27853 = experiment: Bacterial biofilm formation inhibition (crystal violet); format: cell-based, Pseudomonas aeruginosa; settings: 2×MIC and MIC, 24 h
Experimental: In an embodiment, the antibiofilm activity of compound 1 was performed as follows. Given its bactericidal effect, the impact of compound 1 on the biofilm formation of reference strains was studied.
The effect of compound 1 on bacterial biofilm formation was evaluated through quantification of total biomass, using the crystal violet method, as previously described ([FIG. 6]). […] A control with an appropriate concentration of DMSO, as well as a negative control (TSB alone) was included. Sterile 96-well flat-bottomed untreated polystyrene microtiter plates were used. After a 24 h incubation at 37 degrees C., the biofilms were heat-fixed for 1 h at 60 degrees C. and stained with 0.5% (v/v) crystal violet (Quimica Clinica Aplicada, Amposta, Spain) for 5 min. The stain was resolubilized with 33% (v/v) acetic acid (Acetic acid 100%, AppliChem, Darmstadt, Germany) and the biofilm biomass was quantified by measuring the absorbance of each sample at 570 nm in a microplate reader (Thermo Scientific Multiskan® EX, Thermo Fisher Scientific, Waltham, MA, USA). The background absorbance (TSB or TSB+1% glucose without inoculum) was subtracted from the absorbance of each sample and the data are presented as a percentage of control. Three independent assays were performed for reference strains, with triplicates for each experimental condition.

C. albicans ATCC 10231 [1] = experiment: Ergosterol binding assay; format: cell-based, Candida albicans; settings: 400 μg/mL ergosterol
Experimental: Ceragenins have been described to interact with the lipophilic environment of microbial membranes and ergosterol is the major sterol component of fungal plasma membrane, and the target of several antifungals. As such, in order to evaluate the ability of compound 1 to bind to membrane ergosterol of C. albicans ATCC 10231, MICs were determined in the absence and presence of exogenous ergosterol ([FIG. 10]). If the tested compound has the ability to perturb membrane integrity by binding to ergosterol, is expected that, in the presence of exogenous ergosterol, the compound binds to it, decreasing the amount of compound available to bind to membrane ergosterol, therefore increasing the MIC. Amphotericin B was used as a positive control for this assay and MICs obtained were 8 times higher in the presence of 400 μg/mL of exogenous ergosterol than in its absence (2 to 16 μg/mL, data not shown). […] The ability of compound 1 to bind to membrane ergosterol of C. albicans ATCC 10231, was evaluated by the ergosterol binding assay, as previously described. Briefly, MICs of compound 1 were determined by broth microdilution, as described above, in the absence and presence of ergosterol (Sigma-Aldrich, St. Louis, MO, USA) at a final concentration of 400 μg/mL. Ergosterol was prepared immediately before being added to the plates, by maceration and dissolution in DMSO. The formed emulsion was then homogenized, heated to increase solubility, and diluted in RPMI. Amphotericin B was used as positive control. Plates were incubated at 35° C. for 48 h and MICs were determined as described above. At least two independent assays were performed.

C. albicans ATCC 10231 [2] = experiment: Germ tube formation; format: cell-based, Candida albicans; settings: 3 h
Experimental: The effect of compound 1 in germ tube formation of C. albicans ATCC 10231 was determined as previously described. Briefly, cell suspensions were prepared in NYP medium (N-acetylglucosamine [Sigma, St. Louis, MO, USA; 10-3 mol/L], yeast nitrogen base [Difco, New Jersey, USA; 3.35 g/L], proline [Fluka, Buchs, St. Gallen, Switzerland; 10^−3 mol/L], and NaCl [4.5 g/L], pH 6.7±0.1) and adjusted to a density of (1.0±0.2)×10^6 CFU/mL, as determined by cell counts using a haemocytometer. An appropriate volume of compound stock solution at 10 mg/mL was added to obtain final concentrations ranging between 64 and 8 μg/mL. Filamentation controls were included in each assay with and without 0.64% DMSO. Following a 3 h incubation at 37° C., 100 cells from each sample were counted, using a haemocytometer, and the percentage of germ tubes was determined. Three independent assays were performed.

C[C@H](CCC(=O)NCCN)[C@H]1CC[C@H]2[C@@H]3CC[C@@H]4C[C@H](O)CC[C@]4(C)[C@H]3C[C@H](O)[C@]12C [Compound 1, (R)—N-(2-aminoethyl)-4-((3R,5R,8R,9S,10S,12S,13R,14S,17R)-3,12-dihydroxy-10,13-dimethylhexadecahydro-1H-cyclopenta[a]phenanthren-17-yl) pentanamida]
combined effect with CTX (in words) (E. coli SA/2): No synergistic interactions | combined effect with VAN (in words) (E. faecalis B3/101): No synergistic interactions | combined effect with OXA (in words) (S. aureus 66/1): No synergistic interactions | exposure time to bactericidal activity (≥99.9% killing) (E. coli ATCC 25922; 64 μg/mL (2×MIC)): approximately 1 h | decrease in CFU/mL (E. coli ATCC 25922; 64 μg/mL, after 30 min of exposure): 2 log10-unit | type of killing (in words) (E. coli ATCC 25922; 64-8 μg/mL): concentration-dependent killing | biofilm formation (in words) (P. aeruginosa ATCC 27853): significantly inhibited | effect of exogenous ergosterol on MICs (in words) (C. albicans ATCC 10231 [1]): unaffected | dimorphic transition / germ tube formation (in words) (C. albicans ATCC 10231 [2]; 64 μg/mL (MIC)): complete inhibition of dimorphic transition | dimorphic transition / germ tube formation (in words) (C. albicans ATCC 10231 [2]; 32 and 16 μg/mL (½×MIC and ¼×MIC)): significant inhibition

Source: US20250002450A1, “CATIONIC STEROID COMPOUNDS, METHOD OF OBTAINING THEREOF, FORMULATIONS COMPRISING THEREOF AND THEIR USES” (UNIVERSIDADE DO PORTO, priority 2021, published 2025)
